Measured values taken from PMC5309245, “Discovery and Characterization of Diazenylaryl Sulfonic Acids as Inhibitors of Viral and Bacterial Neuraminidases” (Frontiers in Microbiology, 2017).
Where two headings read alike, the source gives them in different places.

Columns and labels:
[1] = target: IAV HK/68 NA (whole virus) (Influenza A virus, UniProt Q91MA2); experiment: biochemical; set-up: species or system influenza A virus A/Hong Kong/68 (H3N2); settings: for IC50: NA inhibition using FL assay IC50, IAV HK/68
[2] = target: T1, S. pneumoniae DSM20566 NA (NanA) (Streptococcus pneumoniae, UniProt P62575); experiment: FL NA inhibition assay, S. pneumoniae DSM20566; format: biochemical
T1 construct: host or cells: either rNanA from E. coli BL21(DE3) or total precipitated protein of S. pneumoniae DSM20566

[3] = target: T2, S. pneumoniae DSM20566 NA (Streptococcus pneumoniae, UniProt P62575); experiment: HA-based NA inhibition assay, S. pneumoniae DSM20566; format: cell-based
T2 construct: host or cells: either rNanA from E. coli BL21(DE3) or total precipitated protein of S. pneumoniae DSM20566

[4] = test system: influenza A virus 8178/09; experiment: microbe, parasite or virus in culture; format: cell-based, influenza A virus A/Jena/8178/2009 (H1N1); settings: for IC50: Influenza A virus, MDCK, 48 h, read-out: 50% inhibitory concentration, influenza A virus 8178/09
influenza A virus WSN/33 = experiment: microbe, parasite or virus in culture; format: cell-based, influenza A virus A/WSN/1933 (H1N1); settings: for IC50: Influenza A virus, WSN, MDCK, 48 h, read-out: 50% inhibitory concentration, influenza A virus WSN/33
influenza A virus HK/68 = experiment: microbe, parasite or virus in culture; format: cell-based, influenza A virus A/Hong Kong/68 (H3N2); settings: for IC50: Influenza A virus, MDCK, 48 h, read-out: 50% inhibitory concentration, influenza A virus HK/68
[5] = test system: 8178/09-, WSN/33-, or HK/68-induced cytopathic effect; experiment: CPE inhibition assay (viruses not separated); format: cell-based; settings: Influenza A virus, MDCK, read-out: IC50 of inhibition of the 8178/09-, WSN/33-, or HK/68-induced cytopathic effect
S. pneumoniae DSM20566 [6] = experiment: Microtiter broth microdilution assay, planktonic growth; format: cell-based, Streptococcus pneumoniae DSM20566; settings: 18 h, maximum 50 μM; for IC50: Streptococcus pneumoniae, DSM20566, read-out: 50% inhibitory concentration, S. pneumoniae DSM20566 planktonic growth
[7] = test system: S. pneumoniae DSM20566 biofilm; experiment: Biofilm inhibition assay; format: cell-based, Streptococcus pneumoniae DSM20566; settings: for inhibition at 50 µM: Streptococcus pneumoniae, DSM20566, read-out: Inhibition of biofilm formation at the maximum tested concentration; for 50% inhibitory concentration, S. pneumoniae DSM20566 biofilm formation: 24 h, maximum 50 μM
S. pneumoniae DSM20566 [8] = experiment: Bactericidal or bacteriostatic activity (subculture on blood agar); format: cell-based, Streptococcus pneumoniae DSM20566; settings: for cfu per agar plate: 18 h, then subculture
human erythrocytes [9] = format: cell-based
Procedure: (§1) Viral (whole virus) and bacterial NA activity as well as their inhibition were measured by using a fluorescence (FL) assay with the substrate 2′-(4-methylumbelliferyl)-α-D-N-acetylneuraminic acid sodium salt hydrate (MUNANA, 100 μM; Sigma-Aldrich GmbH, Taufkirchen, Germany), and/or a hemagglutination (HA)-based NA inhibition assay (HA assay) with human erythrocytes (Institute of Transfusion Medicine, University Hospital Jena, Jena, Germany), both assays as published recently (Richter et al., [2015]). Recombinant NanA (rNanA) and total precipitated bacterial protein of S. pneumoniae DSM20566 were used in FL and HA assays. Interference of the compounds with the FL signal (self-fluorescence and quenching) was excluded as described previously (Richter et al., [2015]). […] Each compound was tested at least three times in both NA inhibition assays.
Supplementary Table 1. Assay interference phenomena of test compounds in the HA-based […]
sample concentrations [µM] in viral HA-assay bacterial HA-assay […]
hem- prevention of erythrocyte hem- erythrocyte agglutinationa virus-induced lysisc agglutinationd lysise […]
cTest compounds lysed the human erythrocytes (2 h at 4°C). […]

human erythrocytes [10] = format: cell-based; remark: listed apart in the source
Procedure: as §1
Supplementary Table 1. […]
eTest compounds lysed the human erythrocytes (4 h at 37°C and 12 h at 4°C).

in vitro = settings: dog
[11] = target: IAV WSN/33 NA-wt (whole virus) (Influenza A virus, UniProt P03470); experiment: biochemical; set-up: species or system influenza A virus A/WSN/1933 (H1N1); settings: for IC50: NA inhibition using FL assay IC50, IAV WSN/33
IAV 5258/09 NA = experiment: Hemagglutination (HA)-based NA inhibition assay, IAV 5258/09; format: cell-based, influenza A virus A/Jena/5258/2009 (H1N1); settings: human erythrocytes
[12] = MUNANA substrate, read-out: NA inhibition using FL assay IC50, S. p. DSM20566
[13] = human erythrocytes, 4 h at 37°C and 12 h at 4°C

| SMILES | IC50 [1] | IC50 [4] | IC50 (influenza A virus WSN/33) | IC50 (influenza A virus HK/68) | IC50 [5] | IC50 (S. pneumoniae DSM20566 [6]) | inhibition at 50 µM [7] | CC50 (in vitro) | NA inhibition using FL assay IC50, IAV WSN/33 [11] | NA inhibition using FL assay IC50, IAV HK/68 [1] | IC50 [2, 12] | NA inhibition using HA assay MIC, IAV 5258/09 (IAV 5258/09 NA) | NA inhibition using HA assay MIC, S. p. DSM20566 ([3]; human erythrocytes) | 50% inhibitory concentration, S. pneumoniae DSM20566 biofilm formation [7] | sample concentrations provoking erythrocyte lysis, viral HA-assay (human erythrocytes [9]; human erythrocytes, 2 h at 4°C) | sample concentrations provoking erythrocyte lysis, bacterial HA-assay (human erythrocytes [10]; [13]) | IC50 [11] | 50% inhibitory concentration, influenza A virus 8178/09 [4] | 50% inhibitory concentration, influenza A virus WSN/33 (influenza A virus WSN/33) | 50% inhibitory concentration, influenza A virus HK/68 (influenza A virus HK/68) | other results |
| --- | --- | --- | --- | --- | --- | --- | --- | --- | --- | --- | --- | --- | --- | --- | --- | --- | --- | --- | --- | --- | --- |
| O=S(=O)(O)c1ccc2c(/N=N/c3ccc(Sc4ccc(/N=N/c5c(O)ccc6cc(S(=O)(=O)O)ccc56)cc4)cc3)c(O)ccc2c1 [Compound 2] | 83 ± 5.67 µM | 9.09 ± 1.94 µM | 11.8 ± 3.19 µM | 6.19 ± 4.62 µM | < 15 µM | 4.59 ± 2.45 µM | 47% | > 100 µM |  |  |  |  |  |  |  |  |  |  |  |  | IC50 ([2]; NA inhibition using FL assay IC50, S. p. DSM20566): 1.85 ± 0.1 µM; NA inhibition using HA assay MIC, S. p. DSM20566 [3]: 10.00 ± 0.00 µM; Activity (bactericidal or bacteriostatic) (S. pneumoniae DSM20566 [8]; 25 µM): bacteriostatic; cfu per agar plate (S. pneumoniae DSM20566 [8]; 25 µM): > 150; Activity (bactericidal or bacteriostatic) (S. pneumoniae DSM20566 [8]; 50 µM): bacteriostatic; cfu per agar plate (S. pneumoniae DSM20566 [8]; 50 µM): > 150; sample concentrations provoking erythrocyte lysis, viral HA-assay (human erythrocytes [9]): no; sample concentrations provoking erythrocyte lysis, bacterial HA-assay (human erythrocytes [10]): no |
| O=S(=O)(O)c1ccc2c(/N=N/c3ccc(/N=N/c4ccccc4)cc3)c(O)ccc2c1 [Compound 3] |  | 14.4 ± 8.16 µM | 52.2 ± 17.9 µM | 13.6 ± 3.18 µM | < 15 µM | 20.1 ± 2.24 µM |  | > 100 µM | Not active | Not active | 11.6 ± 0.15 µM | Not active^c | Not active^c | Not active | no | no |  |  |  |  |  |
| Cc1ccccc1/N=N/c1ccc(/N=N/c2c(O)ccc3cc(S(=O)(=O)O)ccc23)c(C)c1 [Compound 4] | 71.1 ± 22 µM | 12.1 ± 4.83 µM | 14 ± 2.68 µM | 13.2 ± 3.11 µM | < 15 µM | 12 ± 6.81 µM | 46% | > 100 µM | Not active |  | 4.79 ± 1.31 µM | Not active^c | Not active^c |  | no | 100 µM |  |  |  |  |  |
| O=S(=O)(O)c1ccc(/N=N/c2ccc(/N=N/c3ccc(O)c4ccccc34)cc2)cc1 [Compound 6] | 83.4 ± 3.67 µM | 10.6 ± 0.71 µM | 24.2 ± 9.78 µM | 20.8 ± 1.99 µM | < 15 µM | 6.14 ± 0.61 µM | 46% | > 100 µM |  |  | 1.18 ± 0.55 µM | 24.40 ± 12.47 µM | Not active^c |  | no | no | 36.4 ± 4.2 µM |  |  |  |  |
| COc1cc(/N=N/c2ccc(S(=O)(=O)O)cc2)ccc1/N=N/c1c(O)ccc2ccccc12 [Compound 7] | 87.2 ± 8.03 µM | 3.28 ± 2.19 µM | 78.6 ± 16.2 µM | 4.22 ± 0.98 µM | < 15 µM | 3.32 ± 0.72 µM | 46% | > 100 µM |  |  | 5.6 ± 3.01 µM | Not active^c | Not active^c |  | no | no | 4.25 ± 1.25 µM |  |  |  |  |
| O=S(=O)(O)c1cc(/N=N/c2c(O)ccc3ccccc23)c2c(S(=O)(=O)O)cccc2c1 [Compound 15] |  |  |  |  |  |  |  | > 100 µM |  | Not active | 46.8 ± 5.27 µM | Not active^c | Not active^c | Not active | no | no | 28.7 ± 3.3 µM | Not active | Not active | Not active | 50% inhibitory concentration, S. pneumoniae DSM20566 planktonic growth (S. pneumoniae DSM20566 [6]): Not active |
| O=S(=O)(O)c1cc(S(=O)(=O)O)c2c(/N=N/c3cccc4ccccc34)c(O)ccc2c1 [Compound 16] |  |  |  |  |  | 12 ± 6.81 µM | 46% | > 100 µM |  | Not active | 7.68 ± 0.98 µM | 31.60 ± 0.00 µM | 24.40 ± 12.47 µM |  | no | no | 44.3 ± 2.38 µM | Not active | Not active | Not active |  |
| O=S(=O)(O)c1cc2cccc(S(=O)(=O)O)c2c(O)c1/N=N/c1ccccc1 [Compound 17] |  |  |  |  |  |  |  | > 100 µM | Not active | Not active |  | Not active | Not active | Not active | no | no |  | Not active | Not active | Not active | NA inhibition using FL assay IC50, S. p. DSM20566 ([2]; MUNANA substrate): Not active; 50% inhibitory concentration, S. pneumoniae DSM20566 planktonic growth (S. pneumoniae DSM20566 [6]): Not active |
| C[C@@H](O)[C@H]1C(=O)N2C(C(=O)O)=C(SCCN=CN)C[C@H]12 [Imipenem, imipenem, reference compound] |  |  |  |  |  |  |  |  |  |  |  |  |  |  |  |  |  |  |  |  | Activity (bactericidal or bacteriostatic) (S. pneumoniae DSM20566 [8]; 0.1 µM): bactericidal; cfu per agar plate (S. pneumoniae DSM20566 [8]; 0.1 µM): < 150 |
